Reference: article PMC8344022, “Small-molecule inhibitor of AF9/ENL-DOT1L/AF4/AFF4 interactions suppresses malignant gene expression and tumor growth” (Theranostics, 2021)
Several values for one entry are separate records, joined by “and”; a condition that tells them apart may be missing. Identical values can stand only once. Like-named read-outs stand apart in the source and are kept apart here.

How the values were obtained:
AF9-DOT1L interaction = target: T1, AF9-DOT1L interaction (Homo sapiens, UniProt P42568); test: Fluorescence polarization (FP) inhibition assay, AF9-DOT1L; format: binding
T1 construct: cDNA for human AF9 AHD domain (475-568) and ENL AHD domain (489-559) was synthesized; made in house; host or cells: E. coli BL21(DE3)
T1 sequence (P42568 475-568): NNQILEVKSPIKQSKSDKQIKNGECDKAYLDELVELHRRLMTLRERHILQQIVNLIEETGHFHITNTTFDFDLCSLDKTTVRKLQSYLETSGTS
Excerpt: We developed an Alpha (amplified luminescent proximity homogeneous assay) assay to determine the binding and inhibition of the PPI between maltose-binding protein (MBP)-tagged AF9 AHD and a biotin-labeled DOT1L peptide, using AlphaLisa streptavidin donor beads and anti-MBP acceptor beads. Laser excitation to the donor beads generates singlet oxygen radicals, which can travel for <200 nm in solution and cannot reach the free acceptor beads. The PPI brings the DOT1L coated donor beads and AHD coated acceptor beads together, allowing the radicals to activate the acceptor beads and produce luminescence. […] We also developed a fluorescence polarization (FP) assay. A fluorescein-labeled DOT1L peptide has a higher freedom in solution with a lower polarization value.
(§1) Fluorescence polarization assay. It was performed in 96-well black microplates with each well containing a Fluorescein-labeled peptide (2 nM) and increasing concentration of a AF9/ENL protein in a buffer (20 mM HEPES, pH 7.5, 0.01% Triton X-100, 100 µL) for Kd determination. For IC50 determination, a Fluorescein-labeled peptide (2 nM), AF9/ENL protein (100 nM) and increasing concentration of a compound in the same buffer were placed in each well. Upon incubation of 1h, the FP value of each well was determined using a Tecan SPARK microplate reader. Data were similarly processed to obtain Kd or IC50 values.

AF9-AF4 interaction = target: T2, AF9-AF4 interaction (Homo sapiens, UniProt P42568); test: Alpha assay, AF9-AF4 interaction; format: binding; details: read-out: IC50, inhibition of AF9-AF4 interaction
T2 construct: cDNA for human AF9 AHD domain (475-568) and ENL AHD domain (489-559) was synthesized; made in house; host or cells: E. coli BL21(DE3)
Procedure: (§2) ENL is also a major MLL fusion partner (~10%). The AHD domains of human ENL and AF9 share a high homology with 82% identity and 89% similarity (Figure S1A). […] Our attempts to develop an Alpha assay for ENL-DOT1L failed. […] Compound 1's activity against ENL-DOT1L was therefore not determined.
(§3) Alpha assays. Alpha assays were developed using Perkin-Elmer AlphaLisa anti-MBP kit, which contains streptavidin donor beads and anti-MBP acceptor beads. The assay was performed using a MBP-protein (5 nM), a biotinylated peptide (40 nM), and increasing concentrations of a compound in 25 µL buffer (PBS with 0.5 % BSA, pH 7.5) in 384-well plates according to the manufacturer's protocol and measured with a Tecan SPARK microplate reader. Data were imported into Prism (version 5.0), and IC50 values from 3 independent experiments with standard deviation were obtained by using a standard dose-response curve fitting.

ENL-AF4 interaction = target: T3, ENL-AF4 interaction (Homo sapiens, UniProt Q03111); test: Alpha assay, ENL-AF4 interaction; format: binding; details: read-out: IC50, inhibition of ENL-AF4 interaction
T3 construct: ENL AHD domain (489-559) was synthesized (by Genscript) and inserted into the pMAL c5X expression plasmid; made in house; host or cells: E. coli BL21(DE3)
Procedure: as §2, §3

[1] = system: cytoplasmic protein levels in MV4;11 cells; test: Western blot of cytoplasmic proteins; format: cell-based; details: 3 days, except for ENL at 15 µM
Procedure: (§4) Figure S4. The cytoplasmic protein levels after treatment with Cpd-1 for 3 days. (A) In contrast to the protein
(§5) me2, ENL and AFF4 in MV4;11 cells, except for ENL at 15 µM.
(§6) (1 picture or pasted object on this page, not shown here)

[2] = system: cytoplasmic protein levels in Molm-13 cells; test: Western blot of cytoplasmic proteins; format: cell-based; details: 3 days
Procedure: as §4, §5, §6

MDA-MB-231 cells = test: Antiproliferation assay (MTT); format: cell-based; details: Homo sapiens, 168 h, 7-day incubation, read-out: Cytotoxicity EC50
Procedure: (§7) Antiproliferation assay. Proliferation inhibition assays for suspension blood cancer cells were performed using an XTT assay kit (Roche). Proliferation inhibition assays for solid tumor cell lines MCF-7, MDA-MB-231, Panc1, Panc28 were performed using an MTT assay (Sigma). The antiproliferation EC50 values were determined using Prism 5 and the reported results were the mean values of at least three independent experiments. The incubation time for compound 1 was 7 days and that for EPZ4777 was 14 days.

Panc-1 cells = test: Antiproliferation assay (MTT); format: cell-based; details: Homo sapiens, 168 h, 7-day incubation, read-out: Cytotoxicity EC50
Procedure: as §7

Panc-28 cells = test: Antiproliferation assay (MTT); format: cell-based; details: 168 h, 7-day incubation, read-out: Cytotoxicity EC50
Procedure: as §7

MCF-7 cells = test: Antiproliferation assay (MTT); format: cell-based; details: Homo sapiens, MCF7, 168 h, 7-day incubation, read-out: Cytotoxicity EC50
Procedure: as §7

[3] = system: AF9/ENL-DOT1L/AF4/AFF4 interactions; test: Biochemical assays of PPIs between AF9/ENL and DOT1L/AF4/AFF4 (overall); format: binding, human; details: for IC50: range over the PPIs tested, read-out: IC50s against AF9/ENL-DOT1L/AF4/AFF4 interactions (range over PPIs)
Procedure: Because both FP and Alpha assays are unsuitable for studies of AF9/ENL binding kinetics, we compared the IC50s of the inhibitor with the Kds of the PPIs (Table 1).
as §3, §1

Kasumi-1 cells = test: Antiproliferation assay (XTT); format: cell-based; details: Homo sapiens, 168 h, 7-day incubation, read-out: Cytotoxicity EC50
Procedure: as §7

U266 cells = test: Antiproliferation assay (XTT); format: cell-based; details: Homo sapiens, U-266, 168 h, 7-day incubation, read-out: Cytotoxicity EC50
Procedure: as §7

[4] = system: nuclear protein levels in Molm-13 cells; test: Western blot of nuclear proteins; format: cell-based; details: 3 days
Procedure: Next, we investigated how compound 1 affects these transcription cofactors in the nucleus, where they regulate gene expression. […] DOT1L inhibitor EPZ4777 [25] reduced the methylation levels of H3K79, but not other proteins (Figure 3B). […] In this regard, despite lack of activity against DOT1L, compound 1 can mimic EPZ4777 to reduce H3K79 methylation.
Western blot. 3x10^6 cells/well were treated with increasing concentrations of a compound for 3 days and nuclear proteins extracted with the EpiQuik Nuclear Extraction Kit (Epigentek) according to the manufacturer's protocol. Equal amounts of proteins were separated on SDS-PAGE and transferred to PVDF membranes. The blots were probed with primary antibodies, followed by anti-rabbit or anti-mouse IgG (Thermo Scientific) secondary antibodies. The primary antibodies used in this research were MBP Mouse mAb (#2396, Cell signaling), DOT1L Rabbit mAb (#77087, Cell signaling), MLL-N Rabbit mAb (#14689, Cell signaling), ENL Rabbit mAb (#14893, Cell signaling), Di-Methyl-Histone H3K79 Rabbit mAb (#5427, Cell signaling), Mono-Methyl-Histone H3K79 Rabbit mAb (#9398, Cell signaling), Histone H3 Rabbit mAb (#4499, Cell signaling), AF4 Rabbit pAb (#NBP1-28705, Novusbio) and AFF4 Rabbit pAb (#ab103586, Abcam).

T3 sequence (Q03111 489-559): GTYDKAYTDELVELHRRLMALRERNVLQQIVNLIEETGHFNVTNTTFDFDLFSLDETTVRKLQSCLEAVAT

CC(C)(C)c1ccc(-n2cc(C(=O)NC3CCNCC3)nc2-c2ccccc2)cc1 [Compound 1]
IC50 (AF9-DOT1L interaction): 3.2 µM | IC50 (AF9-AF4 interaction): 1.5 ± 0.2 µM | IC50 (ENL-AF4 interaction): 0.9 µM and 0.94 µM | Cytoplasmic protein levels of H3K79me1 and me2, ENL and AFF4 [1]: did not significantly reduce | Cytoplasmic levels of H3K79me1 and me2, ENL and AFF4 [2]: did not significantly reduce | EC50 (MDA-MB-231 cells): 13.5 ± 0.2 µM | EC50 (Panc-1 cells): 15.1 ± 0.2 µM | EC50 (Panc-28 cells): 23.8 ± 0.2 µM | EC50 (MCF-7 cells): 19.8 ± 0.3 µM | Mode of inhibition ([3]; comparison of IC50s with Kds of the PPIs): non-competitive mode of inhibition | IC50 ([3]; listed as Compound-1): 0.9 to 3.5 µM | IC50 [3]: 0.94 to 3.5 µM | EC50 (Kasumi-1 cells): 8.9 ± 0.3 µM | EC50 (U266 cells): 7.9 ± 0.4 µM | Nuclear levels of DOT1L, H3K79me1 and me2, ENL and AFF4 [4]: reduced the nuclear levels of DOT1L, H3K79me1 and me2, ENL and AFF4 | Nuclear levels of MLL-AF9 [4]: unaffected
